These compounds were tested against Factor D (Homo sapiens (Human), UniProt P00746) (assay: Factor D esterolytic assay (Z-Lys-SBzl substrate, DTNB, 405 nm)). Conditions: Z-Lys-SBzl 1.29 mM, pH 7.5, 10% DMSO, tested a minimum of three times, read-out: Measured Ki (IC50) Value for Compounds: IC50.
Format: biochemical
Experimental: The IC50 value of a compound (i.e., the concentration of the compound that inhibits 50% of the enzymatic activity) was calculated according to the procedure reported in U.S. Pat. No. 6,653,340 B1, e.g., column 74 (incorporated by reference).
Specifically, the compounds were dissolved in a stock solution of DMSO at 10.0 or 100 mM. A portion of this stock solution was added to assay buffer in a final volume of 50 μL. Controls included buffer alone and enzyme solutions to which DMSO was added. Substrate was added to the reaction wells immediately or after incubation at room temperature. The reaction rates were measured spectrophotometrically by the generation of product at 405 nm for 600 sec. Background absorbance at 690 nm was measured and subtracted from the absorbance at 405 nm for each well.
The reaction rate for enzyme alone was compared to the rate of enzyme in the presence of inhibitor and the percent inhibition was calculated as shown below: Percent Inhibition=[Rate without inhibitor−Rate with inhibitor)/(Rate without inhibitor)]×100 Factor D Esterolytic Assay:
An established esterolytic assay for the measurement of Factor D activity and inhibition of Factor D activity was used (Kam, C. M.; McRae, B. J.; Harper, J. W.; Niemann, M. A.; Volanakis, J. E.; Powers, J. C. Human complement proteins D, C2, and B Active site mapping with peptide thioester substrates. J Biol. Chem. 1987, 262, 3444-3451). For this assay Z-Lys-SBzl, 1.29 mM (Kim, S.; Narayana, S. V. L; Volanakis, J. E. Mutational analysis of the substrate binding site of human complement Factor D. Biochemistry. 1994, 33, 14393-14399.) was used as the substrate for Factor D ([…]). Hydrolysis of this compound by Factor D liberated a free sulfhydryl group which is then reacted with 5,5′-dithiobis(2nitrobenzoic acid) producing an intense yellow color (Habeeb, A. F. S. A. Reaction of protein sulfhydryl groups with Ellman's Reagent. Methods in Enzymol. 1976, 25, 457-464). The assays were performed in 96 well microtiter plates and rates of hydrolysis were monitored at 405 nm on a Biotek Synergy H1 plate reader. Hydrolysis rates were reported as change in mOD/min. The assay was conducted in 100 mM HEPES, 500 mM NaCl, pH 7.5 containing 10% DMSO in a final volume of 50 μL per well.
An IC50, a compound concentration which inhibits 50% of the enzymatic activity, was calculated. Compounds in the examples were tested a minimum of three times.

Chain of Factor D (P00746 26-253): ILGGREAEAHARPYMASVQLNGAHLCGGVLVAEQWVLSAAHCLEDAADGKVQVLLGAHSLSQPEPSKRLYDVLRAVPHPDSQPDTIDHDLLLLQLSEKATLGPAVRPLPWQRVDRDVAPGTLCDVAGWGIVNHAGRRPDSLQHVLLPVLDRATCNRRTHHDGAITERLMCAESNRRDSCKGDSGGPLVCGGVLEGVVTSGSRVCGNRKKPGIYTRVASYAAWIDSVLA

SMILES	IC50
COc1ccc(CC(=O)O)c(NC(=O)c2nc(-c3cccc(CN)c3)nn3cccc23)c1 [Compound 42d, 2-(2-(2-(3-(aminomethyl)phenyl)pyrrolo[2,1-f][1,2,4]triazine-4-carboxamido)-4-methoxyphenyl)acetic acid]	< 1000 nM
NCc1cccc(-c2cc(COc3ccccc3CC(=O)O)cc3c2OCC3)c1 [Compound 43d, 2-(2-((7-(3-(aminomethyl)phenyl)-2,3-dihydrobenzofuran-5-yl)methoxy)phenyl)acetic acid]	< 1000 nM
NCc1cccc(-c2cc(C(=O)Nc3ccccc3CC(=O)O)cc3c2ccn3CC2CC2)c1 [Compound 44c, 2-(2-(4-(3-(aminomethyl)phenyl)-1-(cyclopropylmethyl)-1H-indole-6-carboxamido)phenyl)acetic acid]	< 1000 nM
Cn1ccc2c(-c3cccc(CN)c3)cc(C(=O)Nc3ccccc3CC(=O)O)cc21 [Compound 45e, 2-(2-(4-(3-(aminomethyl)phenyl)-1-methyl-1H-indole-6-carboxamido)phenyl)acetic acid]	< 1000 nM
NCc1cccc(-c2nc(C(=O)Nc3ccccc3CC(=O)O)c3ccc(CN4CCCC4)n3n2)c1 [Compound 46g, 2-(2-(2-(3-(aminomethyl)phenyl)-7-(pyrrolidin-1-ylmethyl)pyrrolo[2,1-f][1,2,4]triazine-4-carboxamido)phenyl)acetic acid]	1000 to 10000 nM
NCc1ccc(F)c(-c2nc(C(=O)Nc3ccccc3CC(=O)O)c3cccn3n2)c1 [Compound 47f, 2-(2-(2-(5-(aminomethyl)-2-fluorophenyl)pyrrolo[2,1-f][1,2,4]triazine-4-carboxamido)phenyl)acetic acid]	1000 to 10000 nM
NCc1cccc(-c2nc(C(=O)Nc3ccccc3CC(=O)O)nc3c2COC3)c1 [Compound 48h, 2-(2-(4-(3-(aminomethyl)phenyl)-5,7-dihydrofuro[3,4-d]pyrimidine-2-carboxamido)phenyl)acetic acid]	1000 to 10000 nM
Cc1ccc(S(=O)(=O)n2ccc3c(-c4cccc(CN)c4)cc(COc4ccccc4CC(=O)O)nc32)cc1 [Compound 49f, 2-(2-((4-(3-(aminomethyl)phenyl)-1-tosyl-1H-pyrrolo[2,3-b]pyridin-6-yl)methoxy)phenyl)acetic acid]	< 1000 nM
Cn1ccc2c(-c3cccc(CN)c3)cc(COc3ccccc3CC(=O)O)cc21 [Compound 50e, 2-(2-((4-(3-(aminomethyl)phenyl)-1-methyl-1H-indol-6-yl)methoxy)phenyl)acetic acid]	< 1000 nM
Cc1ccc(CC(=O)O)c(NC(=O)c2nc(-c3cccc(CN)c3F)nn3cccc23)c1 [Compound 51c, 2-(2-(2-(3-(aminomethyl)-2-fluorophenyl)pyrrolo[2,1-f][1,2,4]triazine-4-carboxamido)-4-methylphenyl)acetic acid]	< 1000 nM
NCc1cccc(-c2cc(COc3ccccc3CC(=O)O)nc3[nH]ccc23)c1 [Compound 52a, 2-(2-((4-(3-(aminomethyl)phenyl)-1H-pyrrolo[2,3-b]pyridin-6-yl)methoxy)phenyl)acetic acid]	< 1000 nM
Cc1cccc(CC(=O)O)c1NC(=O)c1nc(-c2cccc(CN)c2)nn2cccc12 [Compound 53d, 2-(2-(2-(3-(aminomethyl)phenyl)pyrrolo[2,1-f][1,2,4]triazine-4-carboxamido)-3-methylphenyl)acetic acid]	< 1000 nM
Cc1cc(NC(=O)c2nc(-c3cccc(CN)c3F)nn3cccc23)n(CC(=O)O)n1 [Compound 54d, 2-(5-(2-(3-(aminomethyl)-2-fluorophenyl)pyrrolo[2,1-f][1,2,4]triazine-4-carboxamido)-3-methyl-1H-pyrazol-1-yl)acetic acid]	> 10000 nM

Continued, values first:

IC50	SMILES
< 1000 nM	NCc1cccc(-c2cc(COc3ccccc3CC(=O)O)cc3cc(C4CC4)oc23)c1 [Compound 55g, 2-(2-((7-(3-(aminomethyl)phenyl)-2-cyclopropylbenzofuran-5-yl)methoxy)phenyl)acetic acid]
< 1000 nM	NCc1cccc(-c2cc(COc3ccccc3CC(=O)O)cc3ccoc23)c1F [Compound 56c, 2-(2-((7-(3-(aminomethyl)-2-fluorophenyl)benzofuran-5-yl)methoxy)phenyl)acetic acid]
< 1000 nM	Cc1ccc(S(=O)(=O)n2ccc3c(-c4cccc(CN)c4F)cc(COc4ccccc4CC(=O)O)cc32)cc1 [Compound 57c, 2-(2-((4-(3-(aminomethyl)-2-fluorophenyl)-1-tosyl-1H-indol-6-yl)methoxy)phenyl)acetic acid]
< 1000 nM	NCc1cccc(-c2cc(COc3ccccc3CC(=O)O)cc3[nH]ccc23)c1F [Compound 58b, 2-(2-((4-(3-(aminomethyl)-2-fluorophenyl)-1H-indol-6-yl)methoxy)phenyl)acetic acid]
< 1000 nM	N[C@H](CO)c1cccc(-c2cc(COc3ccccc3CC(=O)O)cc3ccoc23)c1 [Compound 59d, (S)-2-(2-((7-(3-(1-amino-2-hydroxyethyl)phenyl)benzofuran-5-yl)methoxy)phenyl)acetic acid]
< 1000 nM	NCc1cc(-c2cc(COc3ccccc3CC(=O)O)cc3ccoc23)ccc1F [Compound 60c, 2-(2-((7-(3-(aminomethyl)-4-fluorophenyl)benzofuran-5-yl)methoxy)phenyl)acetic acid]
1000 to 10000 nM	CN(C)c1nc2cc(C(=O)Nc3ccccc3CC(=O)O)cc(-c3cccc(CN)c3)c2o1 [Compound 61f, 2-(2-(7-(3-(aminomethyl)phenyl)-2-(dimethylamino)benzo[d]oxazole-5-carboxamido)phenyl)acetic acid]
< 1000 nM	NCc1cccc(-c2cc(C(=O)Nc3ccccc3CC(=O)O)cc3cc(C4CC4)oc23)c1 [Compound 62c, 2-(2-(7-(3-(aminomethyl)phenyl)-2-cyclopropylbenzofuran-5-carboxamido)phenyl)acetic acid]
< 1000 nM	Cc1ccc(CC(=O)O)c(NC(=O)c2nc(-c3cc(F)cc(CN)c3)nn3cccc23)c1 [Compound 63c, 2-(2-(2-(3-(aminomethyl)-5-fluorophenyl)pyrrolo[2,1-f][1,2,4]triazine-4-carboxamido)-4-methylphenyl)acetic acid]
< 1000 nM	NCc1cccc(-c2nc(C(=O)Nc3ccccc3CC(=O)O)c3ccccc3n2)c1 [Compound 64f, 2-(2-(2-(3-(aminomethyl)phenyl)quinazoline-4-carboxamido)phenyl)acetic acid]
< 1000 nM	C[C@@H](N)c1cccc(-c2cc(COc3ccccc3CC(=O)O)cc3ccoc23)c1F [Compound 65c, (R)-2-(2-((7-(3-(1-aminoethyl)-2-fluorophenyl)benzofuran-5-yl)methoxy)phenyl)acetic acid]
< 1000 nM	C[C@H](N)c1cccc(-c2cc(COc3ccccc3CC(=O)O)cc3ccoc23)c1F [Compound 66c, (S)-2-(2-((7-(3-(1-aminoethyl)-2-fluorophenyl)benzofuran-5-yl)methoxy)phenyl)acetic acid]
< 1000 nM	N[C@H](CO)c1cccc(-c2cc(COc3ccccc3CC(=O)O)cc3ccoc23)c1F [Compound 67c, (S)-2-(2-((7-(3-(1-amino-2-hydroxyethyl)-2-fluorophenyl)benzofuran-5-yl)methoxy)phenyl)acetic acid]
< 1000 nM	Cc1c(CN)cccc1-c1cc(COc2ccccc2CC(=O)O)cc2ccoc12 [Compound 68c, 2-(2-((7-(3-(aminomethyl)-2-methylphenyl)benzofuran-5-yl)methoxy)phenyl)acetic acid]
